Data: patent US10040781B2, “Tank-binding kinase inhibitor compounds” (Gilead Sciences, Inc., priority 2014, dated 2018)
Where two headings read alike, the source gives them in different places.

Tests used:
TBK1 = TBK1 (Homo sapiens (Human), UniProt Q9UHD2); assay: TBK1 TR-FRET enzymatic assay;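 note: phosphorylation of a biotinylated Ser/Thr peptide by purified full-length recombinant TBK1, read by TR-FRET after 240 min at 25 °C, IC50 is the geometric mean of at least four runs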
IKKε = IKKε (Homo sapiens (Human), UniProt Q14164); assay: IKKε TR-FRET enzymatic assay; type: biochemical; conditions: read-out: IKKe IC50
Sequence of IKKε (Q14164 whole entry): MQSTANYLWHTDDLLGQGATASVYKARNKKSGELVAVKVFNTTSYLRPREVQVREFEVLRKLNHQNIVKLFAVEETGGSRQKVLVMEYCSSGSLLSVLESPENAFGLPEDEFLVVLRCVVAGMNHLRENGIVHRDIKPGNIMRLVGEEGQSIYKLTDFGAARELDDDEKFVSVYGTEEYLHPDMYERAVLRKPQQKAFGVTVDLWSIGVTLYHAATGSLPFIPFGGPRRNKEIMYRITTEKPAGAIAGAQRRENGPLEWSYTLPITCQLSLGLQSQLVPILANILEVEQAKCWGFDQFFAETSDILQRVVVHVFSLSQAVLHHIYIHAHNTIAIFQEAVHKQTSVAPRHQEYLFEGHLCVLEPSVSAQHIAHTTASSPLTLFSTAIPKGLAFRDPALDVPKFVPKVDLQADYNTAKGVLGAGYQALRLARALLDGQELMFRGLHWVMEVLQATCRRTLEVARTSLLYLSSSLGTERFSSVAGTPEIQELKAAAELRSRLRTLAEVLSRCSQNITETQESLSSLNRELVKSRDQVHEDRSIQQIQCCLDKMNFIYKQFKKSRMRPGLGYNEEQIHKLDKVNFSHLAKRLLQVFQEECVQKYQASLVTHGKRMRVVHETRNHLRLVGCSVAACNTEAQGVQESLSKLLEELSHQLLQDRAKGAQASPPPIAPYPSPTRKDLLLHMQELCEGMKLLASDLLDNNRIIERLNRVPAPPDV

hJAK2 = hJAK2 (Homo sapiens (Human), UniProt O60674); assay: hJAK2 LANCE TR-FRET enzymatic assay; type: biochemical; conditions: read-out: JAK2 IC50
Sequence of hJAK2 (O60674 whole entry): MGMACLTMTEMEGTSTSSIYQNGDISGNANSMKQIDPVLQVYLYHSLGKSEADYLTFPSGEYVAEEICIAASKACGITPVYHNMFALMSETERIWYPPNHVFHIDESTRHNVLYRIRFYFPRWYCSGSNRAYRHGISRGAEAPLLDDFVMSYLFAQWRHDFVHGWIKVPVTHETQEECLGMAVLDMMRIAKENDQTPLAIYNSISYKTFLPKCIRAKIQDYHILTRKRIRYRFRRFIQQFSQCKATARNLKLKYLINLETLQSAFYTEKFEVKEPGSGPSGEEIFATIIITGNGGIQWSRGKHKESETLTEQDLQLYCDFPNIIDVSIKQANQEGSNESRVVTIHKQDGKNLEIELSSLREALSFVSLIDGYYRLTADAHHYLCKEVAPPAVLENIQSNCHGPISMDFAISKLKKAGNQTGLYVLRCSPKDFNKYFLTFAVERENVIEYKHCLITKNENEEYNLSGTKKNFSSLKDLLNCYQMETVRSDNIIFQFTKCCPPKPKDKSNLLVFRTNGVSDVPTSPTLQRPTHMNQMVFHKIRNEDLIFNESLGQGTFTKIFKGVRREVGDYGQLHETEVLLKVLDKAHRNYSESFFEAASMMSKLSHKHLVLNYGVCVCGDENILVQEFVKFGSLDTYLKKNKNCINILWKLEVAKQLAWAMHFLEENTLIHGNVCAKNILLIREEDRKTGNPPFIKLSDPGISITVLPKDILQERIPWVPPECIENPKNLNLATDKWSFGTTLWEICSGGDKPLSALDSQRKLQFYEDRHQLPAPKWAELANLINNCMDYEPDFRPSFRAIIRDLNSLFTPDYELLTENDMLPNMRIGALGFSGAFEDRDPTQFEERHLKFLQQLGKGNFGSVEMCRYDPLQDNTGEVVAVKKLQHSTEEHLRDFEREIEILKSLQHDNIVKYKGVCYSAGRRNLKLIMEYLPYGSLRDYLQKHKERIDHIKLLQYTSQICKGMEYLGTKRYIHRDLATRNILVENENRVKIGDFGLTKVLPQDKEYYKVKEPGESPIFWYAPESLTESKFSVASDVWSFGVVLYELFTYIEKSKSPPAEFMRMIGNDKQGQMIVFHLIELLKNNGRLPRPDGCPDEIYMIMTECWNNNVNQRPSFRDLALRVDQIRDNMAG

[1] = TR-FRET, 2×Km ATP, geometric mean of minimum four determinations

Sequence of TBK1 (Q9UHD2 whole entry): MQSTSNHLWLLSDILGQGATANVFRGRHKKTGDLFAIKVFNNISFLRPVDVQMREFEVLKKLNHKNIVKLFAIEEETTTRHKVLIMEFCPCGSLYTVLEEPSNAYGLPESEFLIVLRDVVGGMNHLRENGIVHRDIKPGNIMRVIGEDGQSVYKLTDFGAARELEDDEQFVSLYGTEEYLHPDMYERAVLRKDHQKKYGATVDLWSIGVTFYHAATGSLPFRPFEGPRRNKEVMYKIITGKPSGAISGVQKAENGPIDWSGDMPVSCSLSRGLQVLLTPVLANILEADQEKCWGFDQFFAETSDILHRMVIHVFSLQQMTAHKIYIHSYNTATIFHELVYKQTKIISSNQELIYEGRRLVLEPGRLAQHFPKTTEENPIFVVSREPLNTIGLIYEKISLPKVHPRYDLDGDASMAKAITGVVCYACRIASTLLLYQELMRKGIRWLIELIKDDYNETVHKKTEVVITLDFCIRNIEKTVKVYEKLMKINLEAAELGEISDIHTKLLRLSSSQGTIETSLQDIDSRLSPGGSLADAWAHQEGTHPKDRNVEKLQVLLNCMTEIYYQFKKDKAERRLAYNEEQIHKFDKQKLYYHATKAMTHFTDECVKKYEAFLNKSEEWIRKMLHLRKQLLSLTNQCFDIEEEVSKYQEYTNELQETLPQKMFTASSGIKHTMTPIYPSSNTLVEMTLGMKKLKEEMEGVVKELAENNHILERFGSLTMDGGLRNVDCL

SMILES: N#Cc1cc(-c2ncnc(Nc3ccc(N4CCN(C5COC5)CC4)cc3)n2)ccc1O[C@H]1CCN(C(=O)C2(C#N)CC2)C[C@H]1F [Example 587, 2-(((3R,4S)-1-(1-cyanocyclopropanecarbonyl)-3-fluoropiperidin-4-yl)oxy)-5-(4-((4-(4-(oxetan-3-yl)piperazin-1-yl)phenyl)amino)-1,3,5-triazin-2-yl)benzonitrile]
- IC50 (TBK1): 30 nM
- IC50 (IKKε; [1]): 49 nM
- IC50 (hJAK2): 235 nM

SMILES: N#Cc1cc(-c2ncnc(Nc3ccc(N4CCN(C5COC5)CC4)cc3)n2)ccc1O[C@H]1CCN(C(=O)[C@@H]2C[C@H](O)CN2)C[C@H]1F [Example 588, 2-(((3R,4S)-3-fluoro-1-((2S,4S)-4-hydroxypyrrolidine-2-carbonyl)piperidin-4-yl)oxy)-5-(4-((4-(4-(oxetan-3-yl)piperazin-1-yl)phenyl)amino)-1,3,5-triazin-2-yl)benzonitrile]
- IC50 (TBK1): 18 nM
- IC50 (IKKε; [1]): 49 nM
- IC50 (hJAK2): ≥ 1000 nM

SMILES: N#Cc1cc(-c2ncnc(Nc3ccc(N4CCN(C5COC5)CC4)cc3)n2)ccc1O[C@H]1CCN(C(=O)[C@@H]2C[C@@H](O)CN2)C[C@H]1F [Example 589, 2-(((3R,4S)-3-fluoro-1-((2S,4R)-4-hydroxypyrrolidine-2-carbonyl)piperidin-4-yl)oxy)-5-(4-((4-(4-(oxetan-3-yl)piperazin-1-yl)phenyl)amino)-1,3,5-triazin-2-yl)benzonitrile]
- IC50 (TBK1): 18 nM
- IC50 (IKKε; [1]): 28 nM
- IC50 (hJAK2): 855 nM

SMILES: C[C@H](O)C(=O)N1CC[C@H](COc2cc(C#N)cc(-c3ncnc(Nc4ccc(N5CCN(C6COC6)CC5)cc4)n3)c2)C1 [Example 590, 3-(((S)-1-((S)-2-hydroxypropanoyl)pyrrolidin-3-yl)methoxy)-5-(4-((4-(4-(oxetan-3-yl)piperazin-1-yl)phenyl)amino)-1,3,5-triazin-2-yl)benzonitrile]
- IC50 (TBK1): 528 nM
- IC50 (IKKε; [1]): ≥ 1000 nM
- IC50 (hJAK2): ≥ 1000 nM

SMILES: N#Cc1cc(OC[C@H]2CCN(C(=O)CO)C2)cc(-c2ncnc(Nc3ccc(N4CCN(C5COC5)CC4)cc3)n2)c1 [Example 591, (S)-3-((1-(2-hydroxyacetyl)pyrrolidin-3-yl)methoxy)-5-(4-((4-(4-(oxetan-3-yl)piperazin-1-yl)phenyl)amino)-1,3,5-triazin-2-yl)benzonitrile]
- IC50 (TBK1): 474 nM
- IC50 (IKKε; [1]): ≥ 1000 nM
- IC50 (hJAK2): 658 nM

SMILES: N#Cc1cc(-c2ncnc(Nc3ccc(N4CCN(C5COC5)CC4)cc3)n2)ccc1OCCn1ccnc1 [Example 592, 2-(2-(1H-imidazol-1-yl)ethoxy)-5-(4-((4-(4-(oxetan-3-yl)piperazin-1-yl)phenyl)amino)-1,3,5-triazin-2-yl)benzonitrile]
- IC50 (TBK1): 21 nM
- IC50 (IKKε; [1]): 23 nM
- IC50 (hJAK2): 239 nM

SMILES: Cn1ccc(C(=O)N2CCC(COc3ccc(-c4ncnc(Nc5ccc(N6CCN(C7COC7)CC6)cc5)n4)cc3C#N)CC2)cc1=O [Example 593, 2-((1-(1-methyl-2-oxo-1,2-dihydropyridine-4-carbonyl)piperidin-4-yl)methoxy)-5-(4-((4-(4-(oxetan-3-yl)piperazin-1-yl)phenyl)amino)-1,3,5-triazin-2-yl)benzonitrile]
- IC50 (TBK1): 452 nM
- IC50 (IKKε; [1]): 660 nM
- IC50 (hJAK2): ≥ 1000 nM

SMILES: N#Cc1cc(-c2ncnc(Nc3ccc(N4CCN(C5COC5)CC4)cc3)n2)ccc1OCC1CCC(=O)N1 (stereo not drawn) [Example 594, 5-(4-((4-(4-(oxetan-3-yl)piperazin-1-yl)phenyl)amino)-1,3,5-triazin-2-yl)-2-((5-oxopyrrolidin-2-yl)methoxy)benzonitrile]
- IC50 (TBK1): 169 nM
- IC50 (IKKε; [1]): 232 nM
- IC50 (hJAK2): ≥ 1000 nM

SMILES: Cn1ccc(C(=O)N2CCC(Oc3ccc(-c4ncnc(Nc5ccc(N6CCN(C7COC7)CC6)cc5)n4)cc3C#N)CC2)cc1=O [Example 595, 2-((1-(1-methyl-2-oxo-1,2-dihydropyridine-4-carbonyl)piperidin-4-yl)oxy)-5-(4-((4-(4-(oxetan-3-yl)piperazin-1-yl)phenyl)amino)-1,3,5-triazin-2-yl)benzonitrile]
- IC50 (TBK1): 69 nM
- IC50 (IKKε; [1]): 89 nM
- IC50 (hJAK2): ≥ 1000 nM

SMILES: CN1CCC(COc2ccc(-c3ncnc(Nc4ccc(N5CCN(C6COC6)CC5)cc4)n3)cc2C#N)CC1=O (stereo not drawn) [Example 596, 2-((1-methyl-2-oxopiperidin-4-yl)methoxy)-5-(4-((4-(4-(oxetan-3-yl)piperazin-1-yl)phenyl)amino)-1,3,5-triazin-2-yl)benzonitrile]
- IC50 (TBK1): 264 nM
- IC50 (IKKε; [1]): 403 nM
- IC50 (hJAK2): ≥ 1000 nM

SMILES: N#Cc1cc(-c2ncnc(Nc3ccc(N4CCN(C5COC5)CC4)cc3)n2)ccc1OCCC1CNC(=O)C1 (stereo not drawn) [Example 597, 5-(4-((4-(4-(oxetan-3-yl)piperazin-1-yl)phenyl)amino)-1,3,5-triazin-2-yl)-2-(2-(5-oxopyrrolidin-3-yl)ethoxy)benzonitrile]
- IC50 (TBK1): 95 nM
- IC50 (IKKε; [1]): 131 nM
- IC50 (hJAK2): ≥ 1000 nM

SMILES: N#Cc1cc(-c2ncnc(Nc3ccc(N4CCN(C5COC5)CC4)cc3)n2)ccc1OCCNC(=O)c1cccnc1 [Example 598, N-(2-(2-cyano-4-(4-((4-(4-(oxetan-3-yl)piperazin-1-yl)phenyl)amino)-1,3,5-triazin-2-yl)phenoxy)ethyl)nicotinamide]
- IC50 (TBK1): 267 nM
- IC50 (IKKε; [1]): 720 nM
- IC50 (hJAK2): 521 nM

SMILES: N#Cc1cc(-c2ncnc(Nc3ccc(N4CCN(C5COC5)CC4)cc3)n2)ccc1OCCc1cnc2ncnn2c1 [Example 599]
- IC50 (TBK1): 37 nM
- IC50 (IKKε): 176 nM
- IC50 (hJAK2): 510 nM

SMILES: COCCN1CC(COc2ccc(-c3ncnc(Nc4ccc(N5CCN(C6COC6)CC5)cc4)n3)cc2C#N)CC1=O (stereo not drawn) [Example 601, 2-((1-(2-methoxyethyl)-5-oxopyrrolidin-3-yl)methoxy)-5-(4-((4-(4-(oxetan-3-yl)piperazin-1-yl)phenyl)amino)-1,3,5-triazin-2-yl)benzonitrile]
- IC50 (TBK1): 1000 nM
- IC50 (IKKε): ≥ 1000 nM
- IC50 (hJAK2): ≥ 1000 nM

SMILES: N#Cc1cc(-c2ncnc(Nc3ccc(N4CCN(C5COC5)CC4)cc3)n2)ccc1OCCNC(N)=O [Example 602, 1-(2-(2-cyano-4-(4-((4-(4-(oxetan-3-yl)piperazin-1-yl)phenyl)amino)-1,3,5-triazin-2-yl)phenoxy)ethyl)urea]
- IC50 (TBK1): 126 nM
- IC50 (IKKε): 619 nM
- IC50 (hJAK2): ≥ 1000 nM

SMILES: N#Cc1cc(-c2ncnc(Nc3ccc(N4CCN(C5COC5)CC4)cc3)n2)ccc1OCC1CCNC(=O)C1 (stereo not drawn) [Example 604, 5-(4-((4-(4-(oxetan-3-yl)piperazin-1-yl)phenyl)amino)-1,3,5-triazin-2-yl)-2-((2-oxopiperidin-4-yl)methoxy)benzonitrile]
- IC50 (TBK1): 28 nM
- IC50 (IKKε): 37 nM
- IC50 (hJAK2): 950 nM

SMILES: N#Cc1cc(-c2ncnc(Nc3ccc(N4CCN(C5COC5)CC4)cc3)n2)ccc1OCCN1CCN(C(N)=O)CC1 [Example 606, 4-(2-(2-cyano-4-(4-((4-(4-(oxetan-3-yl)piperazin-1-yl)phenyl)amino)-1,3,5-triazin-2-yl)phenoxy)ethyl)piperazine-1-carboxamide]
- IC50 (TBK1): 503 nM
- IC50 (IKKε): 494 nM
- IC50 (hJAK2): ≥ 1000 nM

SMILES: N#Cc1cc(-c2ncnc(Nc3ccc(N4CCN(C5COC5)CC4)cc3)n2)ccc1OCC1CNC(=O)O1 (stereo not drawn) [Example 607, 5-(4-((4-(4-(oxetan-3-yl)piperazin-1-yl)phenyl)amino)-1,3,5-triazin-2-yl)-2-((2-oxooxazolidin-5-yl)methoxy)benzonitrile]
- IC50 (TBK1): 21 nM
- IC50 (IKKε): 16 nM
- IC50 (hJAK2): 161 nM

SMILES: N#Cc1cc(-c2ncnc(Nc3ccc(N4CCN(C5COC5)CC4)cc3)n2)ccc1OCCN1CCNC(=O)C1 [Example 608, 5-(4-((4-(4-(oxetan-3-yl)piperazin-1-yl)phenyl)amino)-1,3,5-triazin-2-yl)-2-(2-(3-oxopiperazin-1-yl)ethoxy)benzonitrile]
- IC50 (TBK1): 662 nM
- IC50 (IKKε): ≥ 1000 nM
- IC50 (hJAK2): ≥ 1000 nM

SMILES: Cc1cc(C)n(CCOc2ccc(-c3ncnc(Nc4ccc(N5CCN(C6COC6)CC5)cc4)n3)cc2C#N)n1 [Example 609, 2-(2-(3,5-dimethyl-1H-pyrazol-1-yl)ethoxy)-5-(4-((4-(4-(oxetan-3-yl)piperazin-1-yl)phenyl)amino)-1,3,5-triazin-2-yl)benzonitrile]
- IC50 (TBK1): 1000 nM
- IC50 (IKKε): ≥ 1000 nM
- IC50 (hJAK2): 237 nM

SMILES: N#Cc1cc(-c2ncnc(Nc3ccc(N4CCN(C5COC5)CC4)cc3)n2)ccc1O[C@H]1CCN(c2cccnc2)C[C@H]1F [Example 611, 2-(((3R,4S)-3-fluoro-1-(pyridin-3-yl)piperidin-4-yl)oxy)-5-(4-((4-(4-(oxetan-3-yl)piperazin-1-yl)phenyl)amino)-1,3,5-triazin-2-yl)benzonitrile]
- IC50 (TBK1): 1000 nM
- IC50 (IKKε): ≥ 1000 nM
- IC50 (hJAK2): ≥ 1000 nM

SMILES: Cc1noc(C(=O)N2CC[C@H](Oc3ccc(-c4ncnc(Nc5ccc(N6CCN(C7COC7)CC6)cc5)n4)cc3C#N)[C@H](F)C2)n1 [Example 612, 2-(((3R,4S)-3-fluoro-1-(3-methyl-1,2,4-oxadiazole-5-carbonyl)piperidin-4-yl)oxy)-5-(4-((4-(4-(oxetan-3-yl)piperazin-1-yl)phenyl)amino)-1,3,5-triazin-2-yl)benzonitrile]
- IC50 (TBK1): 3 nM
- IC50 (IKKε): 2 nM
- IC50 (hJAK2): 607 nM

SMILES: C[C@H](O)C(=O)N1CC[C@H](Nc2ccc(-c3ncnc(Nc4ccc(N5CCN(C6COC6)CC5)cc4)n3)cc2C#N)[C@H](F)C1 [Example 613, 2-(((3R,4S)-3-fluoro-1-((S)-2-hydroxypropanoyl)piperidin-4-yl)amino)-5-(4-((4-(4-(oxetan-3-yl)piperazin-1-yl)phenyl)amino)-1,3,5-triazin-2-yl)benzonitrile]
- IC50 (TBK1): 128 nM
- IC50 (IKKε): 175 nM
- IC50 (hJAK2): 69 nM

SMILES: N#Cc1cc(-c2ncnc(Nc3ccc(N4CCN(C5COC5)CC4)cc3)n2)ccc1O[C@H]1CCN(C(=O)C2(O)CNC2)C[C@H]1F [Example 614, 2-(((3R,4S)-3-fluoro-1-(3-hydroxyazetidine-3-carbonyl)piperidin-4-yl)oxy)-5-(4-((4-(4-(oxetan-3-yl)piperazin-1-yl)phenyl)amino)-1,3,5-triazin-2-yl)benzonitrile]
- IC50 (TBK1): 25 nM
- IC50 (IKKε): 45 nM
- IC50 (hJAK2): 268 nM
